Data published in a melting point compilation (Tetko et al.; mined from patent text by program, amines drawn as free bases though some values may be those of a salt).

SMILES | melting point [°C]
CN(CCN(C)c1ccc(OS(=O)(=O)C(F)(F)F)nc1)c1ccc(OS(=O)(=O)C(F)(F)F)nc1 | 146 to 148
C#CCCOc1cc(NC(=O)CC(CC(=O)O)C(F)(F)F)c(F)cc1Cl (stereo unspecified) | 136 to 137
CCCn1c(COCc2ccc(OC)cc2)nc(C(C)C)c1Sc1cc(Cl)cc(Cl)c1 | 104 to 107
CN(C)C(=O)C(c1ccccc1)(c1ccccc1)c1ncc[nH]1 | 202
O=C(NCC(F)(F)F)c1cc(Cl)cc(Cl)c1 | 145 to 147
O=[N+]([O-])c1ccc2c(c1)S(=O)(=O)NCN2C1CC1 | 198 to 201
Cc1ccc(CN2CCC3(CC2)CSC2=C(O3)c3ccccc3C(=O)C2=O)cc1 | 156 to 158
CN1CCCc2ccc(O)cc21 | 97 to 98
Cc1nc(Cl)c(C#N)c2c1CCCC2 | 98
CC1(C)Oc2cc(N)c([N+](=O)[O-])cc2O1 | 128 to 129
OC(CCc1ccc(F)cc1)c1cnc2sc3c(n12)CCCCC3 (stereo unspecified) | 144 to 146
Cc1cc(C)c2c(c1Br)CC=C2 | 34
N#Cc1c(-c2cccc(N)c2)cc(-c2ccccc2O)nc1NC(=O)c1ccccc1 | 259 to 261
Cc1oc(-c2ccccc2)nc1COc1ccc2c(-c3ccccc3)c(COc3nn(-c4ccccc4)cc3C(=O)O)oc2c1 | 200 to 201
CCCCN(CCCC)C(=O)NCCc1ccc(-c2csc(N)n2)cc1 | 42 to 43
CCOc1cccc2cc(S(=O)(=O)Nc3ccc(F)c(N)c3)c(=O)oc12 | 160 to 162
CC(c1ccc(-c2ccccc2)c(F)c1)c1csc(NC(=S)Nc2ccccc2)n1 (stereo unspecified) | 176 to 177
C=C(C)C(=O)OCCOc1ccc(-c2ccccc2)cc1 | 59 to 60
COc1ccc(C2Sc3cccc4cccc(c34)N(CCN(C)C)C(=O)C2OC(C)=O)cc1 (stereo unspecified) | 111 to 112
O=C(O)C1CCc2c(c3ccccc3n2C(=O)c2cccc(C(F)(F)F)c2)C1 (stereo unspecified) | 173 to 175
COc1ccc(NC2SC(=O)NC2=O)cc1 (stereo unspecified) | 180 to 181
COc1ccc(N2Cc3cnc(Nc4ccccc4)nc3N(C[C@@H](C)O)C2=O)cc1 | 189 to 193
O=[N+]([O-])c1c(Br)nn(Cc2ccc(Cl)cc2)c1NCc1ccccc1 | 139 to 141
CC(Cc1nc(-c2ccccc2)nc2ccccc12)C(=O)NC(CO)c1ccccc1 (stereo unspecified) | 199

SMILES | melting point [°C]
O=C1c2ccccc2-c2ccncc21 | 152 to 153
COC(=O)C1C(=O)Nc2cccc(C(F)(F)F)c2CC1c1ccc(OC)cc1 (stereo unspecified) | 214 to 216
CC1=C(C#N)C(c2cccc([N+](=O)[O-])c2)C(c2nc(CCl)no2)=C(C)N1 (stereo unspecified) | 204 to 206
N#Cc1c(N2CCCC2)cc(-c2ccc(Cl)cc2)c2c1Cc1ccccc1-2 | 197 to 199
O=C1N[C@@H](C(=O)O)CCCCCC[C@@H]1CS (relative stereo) | 180 to 185
CNC1(CC2CCCCC2)C(=O)Nc2ccc(Cl)cc21 (stereo unspecified) | 168 to 169
COc1ccccc1Cc1cnc(NCCSCc2nc[nH]c2C)[nH]c1=O | 163 to 167
CN1CCN(c2cccc(CS(=O)(=O)c3ccccc3)c2[N+](=O)[O-])CC1 | 180 to 182
COc1ccc([C@@H]2OC(=O)[C@H](C)N2C(=O)OCc2ccccc2)cc1 | 97 to 99
CCOC(=O)c1c(Cl)nc2cc(Cl)c(OC)cc2c1CCl | > 250
O=C(O)CCCCCc1ccc(O)c(O)c1 | 109
Nc1nc(-c2cccc3ccccc23)cc2ccc(Cl)cc12 | 180 to 181
CCC(CC)Nc1cc(C)nc(Oc2c(C)cc(Cl)cc2C)c1NC(C)=O | 161 to 164
COC(=O)NNC(=S)Cc1ccccc1 | 93.5 to 94
CC(C)Cn1c(=O)n(C)c(=O)c2c(SCCCC(N)=O)n(Cc3cccc4ccccc34)cc21 | 162 to 165
CCOC(=O)CN(SN(C)C(=O)Oc1cccc2c1OC(C)(C)C2)c1ccccc1 | 92 to 93
CCCCCc1cn(CCCC)c(=O)n1Cc1ccc(-c2ccccc2-c2nnn[nH]2)nc1 | 176 to 177
COC(=O)NC1Cc2ccc([N+](=O)[O-])cc2C1OC(C)=O (stereo unspecified) | 164 to 167
N#Cc1cc(C#N)cc(C=O)c1 | 203 to 204
CCOC(=O)C[C@@H](CCCc1ccncc1)C(=O)N[C@H]1Cc2cn(c3ccccc23)CCOCCNC1=O | 203 to 205
COC(=O)[C@H](Cc1ccc(NC(=O)c2c(Cl)cccc2Cl)cc1)NC(=S)C1(CCCCS(C)(=O)=O)CCCC1 | 200 to 202
Nc1ccccc1Nc1ccc(C(c2ccc(Nc3ccccc3N)cc2)(C(F)(F)F)C(F)(F)F)cc1 | 150 to 152
O=C(NO)c1cc2ccccc2cn1 | 160 to 165
CCCC1C(=O)C(NC(=O)C2CCc3ccccc3C2)=C(N)C(CCC)C1=O (stereo unspecified) | 202 to 204

SMILES | melting point [°C]
CCOc1ccc(C(O)(C(F)(F)F)C(F)(F)Cl)cc1 (stereo unspecified) | 84 to 86
CC(=O)NC[C@H]1CN(c2ccc(-c3nnc(CCCl)s3)c(F)c2)C(=O)O1 | 178 to 180
CCCc1c(C(=O)C(C)C)c2ccc(C(=O)OC)cc2n1Cc1ccccc1C | 99 to 102
CC(C)c1cccc(C(C)C)c1NC(=O)N(c1ccccc1)c1nnn(CCCCCCCC=O)n1 | 104 to 106
CC1(C)OC(=O)Nc2ccc(-c3ccc(Cl)cc3)cc21 | 255 to 257
CC(=O)c1ccc(OCCCN2CCC(c3nsc4cc(F)ccc34)CC2)c(O)c1 | 135 to 137
Cc1cc(N)c(Cl)c(C)n1 | 86
NS(=O)(=O)c1cccc(-c2cccc(-c3nc(-c4ccc(Cl)c(Cl)c4)cc(C(F)(F)F)n3)c2)c1 | 241
O=C(O)c1ccc(C#Cc2ccccc2)cc1 | 224 to 225
COCC(OC(C)=O)C1CC(=O)C2(C)CCC3C(CCC4=CC(=O)C=C(C)C43C)C12 (stereo unspecified) | 184 to 185
CNCCCOc1ccc(-c2ccc(C(=O)O)cc2)cc1-c1ccc2c(c1)C(C)(C)CCC2(C)C | 242
Cc1ccc(Nc2nnc(Cc3ccncc3)c3ccccc23)cc1 | 152 to 153
N#Cc1cccc(Oc2ncccc2C(=O)NCc2ccc(S(N)(=O)=O)cc2)c1 | 179 to 180
O=C1NC(=O)c2ccccc2/C1=C/Nc1ccc(N2CCOCC2)cc1 | 257 to 258
NCCNc1cc(-n2cccn2)nc(-c2cccs2)n1 | 147
Cc1nnc(-c2nn(-c3cccc(C(F)(F)F)c3)ccc2=O)n1-c1ccccc1 | 191 to 192
CC(C)NCC(O)COc1ccc(CCOCC2CCC2)cc1 (stereo unspecified) | 62 to 63
CN(C)C(=O)CC(C)(C)C(=O)O | 119 to 121
CO/N=C(/C)c1cccc(NC(=O)NCC(=O)N(CC(=O)N(C)c2ccccc2)c2ccccc2)c1 | 165
OCc1ccn(-c2ccc(OC(F)(F)F)cc2)n1 | 53 to 54
Cc1nc2ncnn2c(N2CCC(C)CC2)c1-c1ccc(F)cc1Cl | 236
CCOCCOc1ccc(C(O)CNC(C)CCc2ccccc2)cc1C(=O)OC (stereo unspecified) | 100 to 101
C=C(C)c1ccccc1S(=O)(=O)NC(=O)Nc1nc(C)cc(C)n1 | 177 to 183
